From ChEMBL document CHEMBL5150077, “Identification of TUL01101: A Novel Potent and Selective JAK1 Inhibitor for the Treatment of Rheumatoid Arthritis” (J Med Chem, 2022) come the findings set out here.

Broadly, the clearance is a measure of how efficiently the substance is removed, as volume per time. The AUC is concentration integrated over time. The term Cmax denotes the peak of the concentration-time curve. The inhibition in vivo is the percentage by which the read-out fell short of the control.

In series [1] the target is MAP kinase-activated protein kinase 2 (Homo sapiens) (UniProt P49137). The experiment in a line: Inhibition of human MAPKAPK2 assessed as residual activity at 30 uM relative to control.
For series [2], the target named is Mitogen-activated protein kinase 1 (Homo sapiens) (UniProt P28482). Kind of series: Inhibition of human MAPK1 assessed as residual activity at 30 uM relative to control.
Series [3] has as its target Ephrin type-A receptor 2 (Homo sapiens) (UniProt P29317). The experiment in a line: Inhibition of human EPHA2 assessed as residual activity at 30 uM relative to control.
Series [4] deals with Calcium/calmodulin-dependent protein kinase type II subunit alpha (Homo sapiens) (UniProt Q9UQM7). Kind of series: Inhibition of human CAMKIIalpha assessed as residual activity at 30 uM relative to control.
A short description of series [5]: Toxicity in rat assessed as reduction in food intake at 10 mg/kg/day, po administered via gavage once a day pretreated for 9 weeks prior to co-cage and measured on day 74. To be noted: in vivo, 1776 h, time 74 day. The arrangement: scale not given: the % may be the effect or the level left. In kind it is organism-based.
For series [6], the target named is Epidermal growth factor receptor (Homo sapiens) (UniProt P00533). The experiment in a line: Inhibition of human EGFR assessed as residual activity at 30 uM relative to control.
The target in series [7] is Vascular endothelial growth factor receptor 2 (Homo sapiens) (UniProt P35968). The experiment in a line: Inhibition of human KDR assessed as residual activity at 30 uM relative to control.
Series [8] has as its target Inhibitor of nuclear factor kappa-B kinase subunit beta (Homo sapiens) (UniProt O14920). The experiment in a line: Inhibition of human IKKbeta assessed as residual activity at 30 uM relative to control.
In series [9] the test system is Rattus norvegicus. The experiment in a line: Antiarthritic activity in adjuvant-induced arthritis rat model assessed as clinical score at 10 mg/kg, po administered twice a day for 14 days starting from day 13 to 27 post immunization and measured every 3 days a week. In kind it is functional. To be noted: time 14 day.
The target in series [10] is Casein kinase I (Homo sapiens) (UniProt Q9HCP0+P78368+P48730+P49674+P48729). Kind of series: Inhibition of CK1 (unknown origin) assessed as residual activity at 30 uM relative to control. In kind it is protein assay.
The test system of series [11] is Mus musculus. The experiment in a line: Antiarthritic activity in collagen-induced rheumatoid arthritis DBA/1 mouse model assessed as reduction in clinical score at 15 mg/kg, po BID administered for 14 days starting from 7 days before immunization to 21 days after immunization and measured on day 41 post immunization (reference value: 5.75). In kind it is functional. To be noted: time 14 day.

A short description of series [12]: Clearance in Sprague-Dawley rat at 1 mg/kg, iv measured for 24 hrs by LC-MS/MS analysis. In kind it is ADME, organism-based. The settings on record: in vivo.
Series [13] can be described thus: in vivo. To be noted: Sprague-Dawley, rat, po, 10 mg/kg.
A short description of series [14]: AUC in beagle dog at 5 mg/kg, po measured for 24 hrs by LC-MS/MS analysis. In kind it is ADME, organism-based, Canis lupus familiaris. Details: time 24 hrs, dose 5 mg/kg, route po. The settings on record: in vivo.
In series [15] the target is Proto-oncogene tyrosine-protein kinase Src (Homo sapiens) (UniProt P12931). The experiment in a line: Inhibition of human Src (1 to 530 residues) assessed as residual activity at 30 uM relative to control.
The target in series [16] is Hepatocyte growth factor receptor (Homo sapiens) (UniProt P08581). Kind of series: Inhibition of human MET assessed as residual activity at 30 uM relative to control.
In series [17] the target is Dual specificity tyrosine-phosphorylation-regulated kinase 3 (Homo sapiens) (UniProt O43781). The experiment in a line: Inhibition of human DYRK3 assessed as residual activity at 30 uM relative to control.
The test system of series [18] is Rattus norvegicus. The experiment in a line: Antiarthritic activity in adjuvant-induced arthritis rat model assessed as reduction in paw volume at 1 mg/kg, po administered twice a day for 14 days starting from day 13 to 27 post immunization and measured every 3 days a week. In kind it is functional. The settings on record: time 14 day.
The target in series [19] is Tyrosine-protein kinase SYK (Homo sapiens) (UniProt P43405). The experiment in a line: Inhibition of human SYK assessed as residual activity at 30 uM relative to control.
A short description of series [20]: in vivo. The settings on record: Sprague-Dawley, rat, po, 10 mg/kg. This is another data set of the same source.
The target of series [21] is Tyrosine-protein kinase ITK/TSK (Homo sapiens) (UniProt Q08881). The experiment in a line: Inhibition of human ITK assessed as residual activity at 30 uM relative to control.
Series [22] is described as follows: AUC in Sprague-Dawley rat at 10 mg/kg, po measured for 24 hrs by LC-MS/MS analysis. In kind it is ADME, organism-based. The arrangement: time 24 hrs, dose 10 mg/kg, route po. To be noted: in vivo.
Series [23] concerns the target Platelet-derived growth factor receptor alpha (Homo sapiens) (UniProt P16234). The experiment in a line: Inhibition of human PDGFRalpha assessed as residual activity at 30 uM relative to control.
Series [24] has as its system Mus musculus. Kind of series: Antiarthritic activity in collagen-induced rheumatoid arthritis DBA/1 mouse model assessed as inhibition rate at 15 mg/kg, po BID administered for 14 days starting from 7 days before immunization to 21 days after immunization and measured on day 41 post immunization. In kind it is functional. The settings on record: DBA/1, 336 h, time 14 day.

Series [25] concerns the target Aurora kinase A (Homo sapiens) (UniProt O14965). The experiment in a line: Inhibition of human Aurora A assessed as residual activity at 30 uM relative to control.
The target in series [26] is Tyrosine-protein kinase Blk (Homo sapiens) (UniProt P51451). Kind of series: Inhibition of human BLK assessed as residual activity at 30 uM relative to control.
Series [27] deals with Tyrosine-protein kinase Lck (Homo sapiens) (UniProt P06239). The experiment in a line: Inhibition of human LCK assessed as residual activity at 30 uM relative to control.
The nature of series [28]: Toxicity in rat assessed as reduction in food intake at 10 mg/kg/day, po administered via gavage once a day pretreated for 9 weeks prior to co-cage and measured on day 84. Details: scale not given: the % may be the effect or the level left. In kind it is organism-based. The settings on record: in vivo, 2016 h, time 84 day.
Series [29] deals with Serine/threonine-protein kinase B-raf (Homo sapiens) (UniProt P15056). Kind of series: Inhibition of human B-raf assessed as residual activity at 30 uM relative to control.
Series [30] in a line: Elimination half life in Sprague-Dawley rat at 10 mg/kg, po measured for 24 hrs by LC-MS/MS analysis. In kind it is ADME, organism-based. To be noted: in vivo, read-out: beta t1/2 (converted).
For series [31], the target named is RAC-alpha serine/threonine-protein kinase (Homo sapiens) (UniProt P31749). Kind of series: Inhibition of human PKBalpha assessed as residual activity at 30 uM relative to control.
A short description of series [32]: Volume of distribution at steady state in Sprague-Dawley rat at 1 mg/kg, iv measured for 24 hrs by LC-MS/MS analysis. To be noted: in vivo, read-out: Vdss. In kind it is ADME, organism-based.
Series [33] deals with Platelet-derived growth factor receptor beta (Homo sapiens) (UniProt P09619). Kind of series: Inhibition of human PDGFRbeta assessed as residual activity at 30 uM relative to control.
Series [34] in a line: Toxicity in rat assessed as reduction in body weight at 10 mg/kg/day, po administered via gavage once a day pretreated for 9 weeks prior to co-cage and measured on day 84 relative to control. In kind it is organism-based. The arrangement: scale not given: the % may be the effect or the level left. The settings on record: in vivo, 2016 h, time 84 day.
For series [35], the system named is Mus musculus. The experiment in a line: Antiarthritic activity in collagen-induced rheumatoid arthritis DBA/1 mouse model assessed as reduction in incidence rate at 15 mg/kg, po BID administered for 14 days starting from 7 days before immunization to 21 days after immunization and measured on day 41 post immunization. In kind it is functional. To be noted: time 14 day. The arrangement: scale not given: the % may be the effect or the level left.

Series [36] has as its system Mus musculus. Kind of series: Antiarthritic activity in collagen-induced rheumatoid arthritis DBA/1 mouse model assessed as reduction in incidence rate at 15 mg/kg, po BID administered for 14 days starting from 7 days before immunization to 21 days after immunization and measured on day 34 post immunization. In kind it is functional. Details: scale not given: the % may be the effect or the level left. The settings on record: time 14 day.

Sequence of Tyrosine-protein kinase ITK/TSK (Homo sapiens) (Q08881 whole entry): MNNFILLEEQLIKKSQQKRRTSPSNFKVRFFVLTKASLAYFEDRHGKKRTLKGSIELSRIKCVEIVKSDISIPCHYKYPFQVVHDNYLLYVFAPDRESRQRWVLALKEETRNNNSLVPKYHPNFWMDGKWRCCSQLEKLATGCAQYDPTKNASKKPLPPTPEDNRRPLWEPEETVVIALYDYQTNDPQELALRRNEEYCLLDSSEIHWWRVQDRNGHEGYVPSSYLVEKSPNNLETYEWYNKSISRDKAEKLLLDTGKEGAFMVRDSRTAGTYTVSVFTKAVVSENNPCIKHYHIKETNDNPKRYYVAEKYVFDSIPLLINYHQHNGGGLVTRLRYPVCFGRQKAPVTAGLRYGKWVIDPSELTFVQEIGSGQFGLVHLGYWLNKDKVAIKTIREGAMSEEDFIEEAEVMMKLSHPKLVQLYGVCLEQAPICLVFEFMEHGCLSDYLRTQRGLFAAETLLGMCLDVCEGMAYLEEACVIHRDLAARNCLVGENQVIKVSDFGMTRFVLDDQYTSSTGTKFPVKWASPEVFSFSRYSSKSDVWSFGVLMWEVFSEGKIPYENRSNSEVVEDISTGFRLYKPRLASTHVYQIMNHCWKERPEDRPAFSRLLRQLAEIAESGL
Sequence of Dual specificity tyrosine-phosphorylation-regulated kinase 3 (Homo sapiens) (O43781 whole entry): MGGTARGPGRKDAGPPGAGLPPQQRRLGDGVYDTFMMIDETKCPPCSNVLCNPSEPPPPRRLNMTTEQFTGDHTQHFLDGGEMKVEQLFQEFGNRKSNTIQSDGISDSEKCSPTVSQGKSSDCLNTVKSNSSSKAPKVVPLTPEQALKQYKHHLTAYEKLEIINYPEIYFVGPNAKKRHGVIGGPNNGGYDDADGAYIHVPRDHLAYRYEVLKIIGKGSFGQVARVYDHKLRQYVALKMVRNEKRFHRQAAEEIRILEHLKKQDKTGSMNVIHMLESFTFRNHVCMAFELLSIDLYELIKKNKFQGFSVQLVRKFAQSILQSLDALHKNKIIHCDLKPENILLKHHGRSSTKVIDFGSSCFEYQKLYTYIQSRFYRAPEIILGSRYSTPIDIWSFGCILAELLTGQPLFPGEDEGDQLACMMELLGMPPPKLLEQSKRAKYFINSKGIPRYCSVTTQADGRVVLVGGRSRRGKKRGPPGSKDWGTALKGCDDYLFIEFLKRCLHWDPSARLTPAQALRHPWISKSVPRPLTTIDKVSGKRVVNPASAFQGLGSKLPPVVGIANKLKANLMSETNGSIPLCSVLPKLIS
Sequence of Serine/threonine-protein kinase B-raf (Homo sapiens) (P15056 whole entry): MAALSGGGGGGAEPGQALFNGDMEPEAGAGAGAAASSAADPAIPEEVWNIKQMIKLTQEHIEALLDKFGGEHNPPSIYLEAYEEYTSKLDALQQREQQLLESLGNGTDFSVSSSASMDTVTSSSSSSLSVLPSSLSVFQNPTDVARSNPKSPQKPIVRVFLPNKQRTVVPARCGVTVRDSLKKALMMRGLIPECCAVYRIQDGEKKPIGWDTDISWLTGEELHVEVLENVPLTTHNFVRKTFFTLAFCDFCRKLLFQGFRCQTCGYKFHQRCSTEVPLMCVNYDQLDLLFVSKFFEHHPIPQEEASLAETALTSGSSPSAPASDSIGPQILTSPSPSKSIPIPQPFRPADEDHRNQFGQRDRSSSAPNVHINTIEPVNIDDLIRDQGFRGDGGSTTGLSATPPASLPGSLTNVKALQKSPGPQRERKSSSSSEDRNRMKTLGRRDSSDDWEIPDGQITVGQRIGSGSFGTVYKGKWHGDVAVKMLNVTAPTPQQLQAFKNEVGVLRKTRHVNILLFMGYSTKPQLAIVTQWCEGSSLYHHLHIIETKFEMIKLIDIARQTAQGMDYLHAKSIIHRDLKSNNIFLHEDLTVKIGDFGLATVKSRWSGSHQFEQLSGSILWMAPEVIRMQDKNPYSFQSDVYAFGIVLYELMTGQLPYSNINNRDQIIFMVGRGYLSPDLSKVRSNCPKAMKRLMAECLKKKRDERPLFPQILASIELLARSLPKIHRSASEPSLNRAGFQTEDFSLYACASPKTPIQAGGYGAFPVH
Sequence of Aurora kinase A (Homo sapiens) (O14965 whole entry): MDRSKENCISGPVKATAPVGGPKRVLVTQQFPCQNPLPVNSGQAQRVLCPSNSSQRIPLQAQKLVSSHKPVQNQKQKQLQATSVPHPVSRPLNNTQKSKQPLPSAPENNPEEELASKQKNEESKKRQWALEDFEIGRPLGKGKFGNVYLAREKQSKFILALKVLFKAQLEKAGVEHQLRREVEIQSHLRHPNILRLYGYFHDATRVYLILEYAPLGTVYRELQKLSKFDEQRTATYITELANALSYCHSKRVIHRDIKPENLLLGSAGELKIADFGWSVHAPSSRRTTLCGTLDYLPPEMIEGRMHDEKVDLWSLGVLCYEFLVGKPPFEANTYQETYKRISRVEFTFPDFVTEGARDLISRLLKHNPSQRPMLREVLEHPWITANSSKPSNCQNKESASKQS
Sequence of Calcium/calmodulin-dependent protein kinase type II subunit alpha (Homo sapiens) (Q9UQM7 whole entry): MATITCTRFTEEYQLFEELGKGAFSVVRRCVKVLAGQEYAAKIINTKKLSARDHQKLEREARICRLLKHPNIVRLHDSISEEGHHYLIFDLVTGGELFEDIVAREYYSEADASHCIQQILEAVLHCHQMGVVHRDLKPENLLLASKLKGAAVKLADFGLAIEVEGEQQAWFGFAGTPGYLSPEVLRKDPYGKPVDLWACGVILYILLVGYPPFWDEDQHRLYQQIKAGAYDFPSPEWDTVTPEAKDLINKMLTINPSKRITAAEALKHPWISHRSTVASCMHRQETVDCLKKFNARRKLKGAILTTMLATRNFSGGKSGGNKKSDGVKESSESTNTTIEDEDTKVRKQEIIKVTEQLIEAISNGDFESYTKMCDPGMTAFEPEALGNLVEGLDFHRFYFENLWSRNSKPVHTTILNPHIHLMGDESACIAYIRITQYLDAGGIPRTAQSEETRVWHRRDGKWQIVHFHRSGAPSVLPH
Sequence of Platelet-derived growth factor receptor alpha (Homo sapiens) (P16234 whole entry): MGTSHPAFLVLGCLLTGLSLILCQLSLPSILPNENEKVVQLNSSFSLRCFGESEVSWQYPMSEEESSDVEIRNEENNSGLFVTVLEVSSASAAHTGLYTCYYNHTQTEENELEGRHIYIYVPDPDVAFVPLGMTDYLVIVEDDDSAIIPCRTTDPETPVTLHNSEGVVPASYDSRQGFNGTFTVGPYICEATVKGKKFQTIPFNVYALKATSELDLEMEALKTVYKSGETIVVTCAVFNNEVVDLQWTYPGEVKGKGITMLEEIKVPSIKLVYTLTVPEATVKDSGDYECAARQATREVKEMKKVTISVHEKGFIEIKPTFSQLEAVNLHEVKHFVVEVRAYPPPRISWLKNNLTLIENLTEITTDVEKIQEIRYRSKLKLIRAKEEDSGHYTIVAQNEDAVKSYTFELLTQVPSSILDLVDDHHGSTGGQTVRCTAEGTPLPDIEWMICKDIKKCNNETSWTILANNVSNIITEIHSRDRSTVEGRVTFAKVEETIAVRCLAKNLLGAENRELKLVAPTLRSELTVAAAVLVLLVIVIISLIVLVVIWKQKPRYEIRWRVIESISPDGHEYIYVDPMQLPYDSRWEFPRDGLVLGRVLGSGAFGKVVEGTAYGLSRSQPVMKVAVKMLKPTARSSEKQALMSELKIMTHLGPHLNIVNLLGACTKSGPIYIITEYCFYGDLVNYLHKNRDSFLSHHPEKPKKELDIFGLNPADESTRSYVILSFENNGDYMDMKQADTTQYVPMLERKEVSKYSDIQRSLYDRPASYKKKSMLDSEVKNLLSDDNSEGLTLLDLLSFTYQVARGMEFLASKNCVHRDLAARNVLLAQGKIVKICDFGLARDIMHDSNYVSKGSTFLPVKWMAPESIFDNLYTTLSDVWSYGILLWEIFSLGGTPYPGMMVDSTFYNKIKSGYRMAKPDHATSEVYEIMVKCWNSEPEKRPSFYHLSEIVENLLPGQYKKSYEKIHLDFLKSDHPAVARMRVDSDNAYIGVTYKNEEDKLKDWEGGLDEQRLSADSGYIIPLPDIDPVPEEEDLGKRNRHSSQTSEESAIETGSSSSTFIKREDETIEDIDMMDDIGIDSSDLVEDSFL
Sequence of Proto-oncogene tyrosine-protein kinase Src (Homo sapiens) (P12931 2-536 limits assumed): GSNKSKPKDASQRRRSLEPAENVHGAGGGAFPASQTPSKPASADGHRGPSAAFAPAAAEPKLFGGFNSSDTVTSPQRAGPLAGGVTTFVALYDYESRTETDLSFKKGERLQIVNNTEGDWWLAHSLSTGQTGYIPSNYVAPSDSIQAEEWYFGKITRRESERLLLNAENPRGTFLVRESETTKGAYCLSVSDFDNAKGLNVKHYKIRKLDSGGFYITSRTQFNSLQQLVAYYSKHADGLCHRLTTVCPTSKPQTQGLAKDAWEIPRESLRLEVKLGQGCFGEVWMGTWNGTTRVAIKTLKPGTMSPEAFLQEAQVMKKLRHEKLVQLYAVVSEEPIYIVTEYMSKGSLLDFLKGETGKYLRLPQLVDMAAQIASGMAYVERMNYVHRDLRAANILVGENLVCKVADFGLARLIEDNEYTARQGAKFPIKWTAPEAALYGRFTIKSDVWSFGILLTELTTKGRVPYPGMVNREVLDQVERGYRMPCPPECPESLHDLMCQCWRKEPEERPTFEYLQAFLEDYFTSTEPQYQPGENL
Sequence of Mitogen-activated protein kinase 1 (Homo sapiens) (P28482 whole entry): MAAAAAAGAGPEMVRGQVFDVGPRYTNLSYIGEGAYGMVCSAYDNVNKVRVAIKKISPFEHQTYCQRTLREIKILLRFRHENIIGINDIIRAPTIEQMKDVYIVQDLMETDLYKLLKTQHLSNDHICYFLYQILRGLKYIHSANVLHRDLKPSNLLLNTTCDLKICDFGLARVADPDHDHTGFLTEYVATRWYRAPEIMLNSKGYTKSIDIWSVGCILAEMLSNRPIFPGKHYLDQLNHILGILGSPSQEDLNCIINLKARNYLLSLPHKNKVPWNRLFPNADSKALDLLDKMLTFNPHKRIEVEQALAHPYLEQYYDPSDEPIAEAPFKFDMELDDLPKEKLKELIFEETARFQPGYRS

As to `O=C(Nc1nc2cccc(C3CCC4(CC3)CN(C(=O)[C@@H]3CC3(F)F)C4)n2n1)C1CC1`, the Activity in [1] stood at 112%; in [2] it was 104%; in series [3], 102%; in series [4], 88%; in series [5] it was 6.1%; in [6] it was 94%. The Activity in series [7] came out at 31%; in [8], 97%; with Rattus norvegicus [9] it was 3.2; in series [10], 102%; with Mus musculus [11] it was 1.5; in series [15], 86%. For the same molecule, the Activity came to 90% in series [16]; 95% in series [17]; 1.91 mL in the series with Rattus norvegicus [18]; 88% in series [19]; 87% in [21]; 102% in series [23]. Also, the Activity stood at 57% in [25]; 81% in [26]; 74% in [27]; 7.8% in series [28]; 84% in series [29]; 104% in series [31]. Also, the Activity is 85% in series [33] and 5.53% in series [34]. The molecule also yielded a clearance in series [12] of 10.5 mL/min/kg. Further, the bioavailability at 24 h in “in vivo [13]” stood at 121%. For the same molecule, the values for the AUC at 24 h in [14] and in series [22] were 16700 ng·h/mL and 19600 ng·h/mL, respectively. For the same molecule, the concentration in the series “in vivo [20]” peaked (Cmax at 24 h) at 4960 ng/mL. For the same molecule, the inhibition in vivo at 15 mg/kg in the series with Mus musculus [24] was 59.9%. In addition, the half-life in series [30] is 3.06 h. In addition, the Vd in series [32] stood at 1.81 L/kg.

For the molecule `O=C(Nc1nc2cccc(C3CCC4(CC3)CCN(C(=O)[C@@H]3CC3(F)F)CC4)n2n1)C1CC1`, the Activity with Mus musculus [35] was determined as 100%; with Mus musculus [36], 88%.
